Results taken from paper PMC6877910, “Astrocyte-Targeted Transporter-Utilizing Derivatives of Ferulic Acid Can Have Multifunctional Effects Ameliorating Inflammation and Oxidative Stress in the Brain” (Oxidative Medicine and Cellular Longevity, 2019).
Values joined by “and” are separate entries in the source; they are usually repeats but may differ in a detail not shown here. Identical values can stand only once. Like-named read-outs stand apart in the source and are kept apart here.

What was measured:
[1] = target: T1, LAT1 (Mus musculus, UniProt Q9Z127); assay: Ability to bind LAT1: inhibition of [14C]-L-leucine uptake in mouse primary astrocytes; assay type: cell-based; conditions: mean ± SD; for IC50: n = 3-4, read-out: IC50 in astrocytes (LAT1-probe substrate [14C]-L-leucine uptake)
T1 construct: mouse primary astrocytes, from which we have recently characterized LAT1 expression and function; endogenous in cells; host or cells: mouse primary astrocytes (cortex and hippocampi of 2-day-old wild-type and APP/PS1 mice)
T1 sequence (Q9Z127 whole entry): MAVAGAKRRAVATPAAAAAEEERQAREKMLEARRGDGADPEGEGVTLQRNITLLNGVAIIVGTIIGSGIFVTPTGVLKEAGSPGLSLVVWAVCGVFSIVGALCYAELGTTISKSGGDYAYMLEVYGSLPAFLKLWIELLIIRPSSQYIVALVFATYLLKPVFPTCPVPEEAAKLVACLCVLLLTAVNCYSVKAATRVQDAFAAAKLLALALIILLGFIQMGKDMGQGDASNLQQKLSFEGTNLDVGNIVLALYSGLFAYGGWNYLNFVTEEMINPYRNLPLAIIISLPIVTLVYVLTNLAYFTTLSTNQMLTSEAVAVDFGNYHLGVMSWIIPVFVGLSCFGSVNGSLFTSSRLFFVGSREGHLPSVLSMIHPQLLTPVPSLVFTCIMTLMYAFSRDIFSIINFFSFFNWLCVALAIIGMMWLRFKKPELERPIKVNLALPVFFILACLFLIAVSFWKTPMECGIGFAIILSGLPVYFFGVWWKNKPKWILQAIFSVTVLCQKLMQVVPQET
T1 sequence (P10852 whole entry partner): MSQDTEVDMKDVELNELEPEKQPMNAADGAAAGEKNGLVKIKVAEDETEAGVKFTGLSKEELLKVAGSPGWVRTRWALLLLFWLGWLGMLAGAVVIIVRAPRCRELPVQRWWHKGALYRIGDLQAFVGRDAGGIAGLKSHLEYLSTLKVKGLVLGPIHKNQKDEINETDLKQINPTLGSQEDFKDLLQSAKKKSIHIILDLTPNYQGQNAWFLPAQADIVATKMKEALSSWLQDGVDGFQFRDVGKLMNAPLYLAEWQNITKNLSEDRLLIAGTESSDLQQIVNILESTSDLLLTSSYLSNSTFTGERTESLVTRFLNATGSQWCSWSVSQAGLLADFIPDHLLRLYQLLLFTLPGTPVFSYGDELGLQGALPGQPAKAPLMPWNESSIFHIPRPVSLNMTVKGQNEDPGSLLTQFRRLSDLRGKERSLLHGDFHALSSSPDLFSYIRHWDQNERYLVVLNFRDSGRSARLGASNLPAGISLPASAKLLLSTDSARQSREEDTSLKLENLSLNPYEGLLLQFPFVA
Procedure: For the transporter binding studies, the astrocytes were seeded on 24-well plates with a density of 10 × 10^4 cells/well three days before the experiments. After removal of the culture medium, the cells were carefully washed with prewarmed HBSS (Hank's balance salt solution) containing choline chloride (125 mM), KCl (4.8 mM), MgSO4 (1.2 mM), KH2PO4 (1.2 mM), CaCl2 (1.3 mM), glucose (5.6 mM), and HEPES (25 mM) adjusted to pH 7.4 with 1 M NaOH. The cells were preincubated with 500 μL of prewarmed HBSS at 37°C for 10 min before the experiments. To study the ability of studied compounds to inhibit the uptake of a known LAT1 substrate, the cells were incubated at 37°C for 5 min with an uptake buffer (HBSS, 250 μL) containing 0.76 μM (0.25 mCi/mL or 9.85 MBq/mL) of [^14C]-L-leucine (PerkinElmer, Inc., Waltham, MA, USA) and 0.1-1000 μM of studied compound (or HBSS as blank). After incubation, the uptake was stopped by adding 500 μL of ice-cold HBSS and the cells were washed two times with ice-cold HBSS. The cells were then lysed with 500 μL of NaOH (0.1 M) for 60 min, and the lysate was mixed with 3.5 mL of Emulsifier safe cocktail (Ultima Gold, PerkinElmer, Inc., Waltham, MA, USA). The radioactivity in the cells was measured by liquid scintillation counting (MicroBeta^2 counter, PerkinElmer, Inc., Waltham, MA, USA). Half of maximum inhibitory concentration (IC50) values were calculated by nonlinear regression analysis (fitting the curve to log (concentration) vs. remaining normalized […]).

[2] = in vitro; assay type: in vitro ADME; conditions: mouse; for fraction unbound at 4 h, 10 μM: C57BL/6J
Procedure: (§1) The unbound fraction of FA and its derivatives 1-2 was determined at 10 μM in cell homogenate by using a Rapid Equilibrium Dialysis (RED) device (Thermo Fisher Scientific, Inc., Waltham, MA, USA). Briefly, the cell homogenate was prepared from astrocyte cell suspension (10 × 10^6 cells/mL) in HBSS with a SoniPerp 150 Plus disintegrator (MSE Ltd., London, UK) for 2 s × 3. 100 μL of cell homogenate spiked with the studied compound was added to the reaction chamber, and 350 μL of HBSS buffer was added to the buffer chamber of the RED plate. The dialysis plate was incubated at 37°C for 4 h with shaking. 50 μL of samples was taken from the reaction, and buffer chambers and equal size of buffer or blank homogenate were added, respectively, to yield identical matrices. The proteins were precipitated by adding 100 μL of ice-cold ACN (including the selected internal standard; […]

[3] = Intracellular unbound drug concentration ratio (Kp,uu) in astrocytes; assay type: in vitro ADME; conditions: C57BL/6J, mouse, read-out: Kp,uu (unbound intracellular : extracellular ratio)
Procedure: as §1, with “shaking.” for “shaking. 50 μL of samples was taken from the reaction, and buffer chambers and equal size of buffer or blank homogenate were added, respectively, to yield identical matrices. The proteins were precipitated by adding 100 μL of ice-cold ACN (including the selected internal standard;”
The drug concentration ratio in astrocytes (Kp) was determined at 0.01-1.0 μM concentrations by comparing the cellular uptake from the cell lysates (0.1 M NaOH) to the concentration detected from the surrounding buffer (HBSS) collected before cell lysing as described by Mateus et al.: (3) Kp=Acell/Vcell/Cmedium, where Acell is the amount of compound in the cell lysate (nmol), Vcell is the astrocyte cell volume (0.05810^−15 L/cell) for 10 × 10^4 cells/well, and Cmedium is the compound concentration in the surrounding buffer. The unbound drug concentration ratio (Kp,uu) was then calculated by multiplying the drug concentration ratio (Kp) by unbound drug fraction (fu,cell) as described by Mateus et al.: (4) Kp,uu=Kp×fu,cell.

[4] = tested on: primary astrocytes; assay: Astrocyte cell growth / viability (resazurin); assay type: cell-based; conditions: for Effect on astrocyte viability at low concentrations: 5-100 μM, 72 h; for Concentrations with significant antiproliferative efficacy on astrocytes: 72 h incubation, 5-400 μM
Procedure: Primary astrocytes were seeded at the density of 10 × 10^3 cells/well onto collagen-coated 96-well plates. The cells were used for the proliferation experiments one day after seeding. Concentrations of 5-400 μM FA or its LAT1-utilizing derivatives 1-3 were added into the growth medium and incubated for 3 days. Each day, the cell viability was determined by resazurin cell proliferation kit (Sigma, St. Louis, MO, USA), which is directly proportional to aerobic respiration and cellular metabolism of cells. The samples were measured fluorometrically by monitoring the increase in fluorescence at λex 560 nm and λem 590 nm (EnVision, PerkinElmer, Inc., Waltham, MA, USA). The cell viability was also followed by visualizing the wells with microscopy. The ability of compounds to inhibit the viability of the cells was expressed as percentages (%) compared to the untreated controls.

[5] = target: T2, purified human BACE1 (Homo sapiens, UniProt P56817); assay: BACE1 FRET inhibition assay (SensoLyte 520); assay type: biochemical; conditions: 1 and 10 μM; 30 min
T2 construct: purchased AnaSpec, Inc., Fremont, CA, USA SensoLyte 520 BACE1 Assay kit (catalogue number not given)
T2 sequence (P56817 46-501): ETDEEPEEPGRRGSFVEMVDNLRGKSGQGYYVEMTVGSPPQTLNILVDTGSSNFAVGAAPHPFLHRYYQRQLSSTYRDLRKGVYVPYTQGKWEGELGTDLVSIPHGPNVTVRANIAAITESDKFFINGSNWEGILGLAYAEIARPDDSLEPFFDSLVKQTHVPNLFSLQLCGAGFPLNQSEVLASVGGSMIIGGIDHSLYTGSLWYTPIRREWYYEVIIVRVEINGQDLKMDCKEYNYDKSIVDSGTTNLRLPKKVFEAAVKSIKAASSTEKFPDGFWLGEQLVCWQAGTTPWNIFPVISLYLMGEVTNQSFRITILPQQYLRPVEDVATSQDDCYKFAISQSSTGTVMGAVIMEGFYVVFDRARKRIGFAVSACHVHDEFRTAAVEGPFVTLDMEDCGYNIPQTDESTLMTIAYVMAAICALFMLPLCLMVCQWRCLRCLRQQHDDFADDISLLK
Excerpt: A fluorometric assay was used to screen the inhibitory effect of the studied compounds on purified human BACE1 using a fluorescence resonance energy transfer (FRET) peptide technique (SensoLyte© 520 BACE1 Assay kit, AnaSpec, Inc., Fremont, CA, USA) according to the manufacturer's protocol. […] The sequence of the FRET peptide has been derived from the β-secretase cleavage site of β-amyloid precursor protein (APP) with Swedish mutation, which enhances β-secretase to process APP resulting in an early onset of AD. Thus, active β-secretase cleaved FRET substrate into two separate fragments resulting in the release of HiLyte™ Fluor 488 fluorescence that was measured by the EnVision plate reader (EnVision, PerkinElmer, Inc., Waltham, MA, USA) at λex 490 nm and λem 520 nm. […] The results were reported as percentages (%), with control sample representing 100% β-secretase activity.

[6] = tested on: LAT1; conditions: human breast adenocarcinoma cells (MCF-7); previously determined values; cited from earlier work
[7] = mouse brain in vivo; previous study; cited from earlier work
[8] = 10 μM in astrocyte cell homogenate, mean ± SD, n = 3, read-out: Unbound fraction fu,cell

COc1cc(C=CC(=O)NCc2cccc(CC(N)C(=O)O)c2)ccc1O (stereo not shown) [FA-derivative 1]
IC50 [1]: 2.2 µM and 2.15 µM | fraction unbound at 4 h, 10 μM [2, 8]: 0.163 ± 0.0272 | Kp uu ([3]; lower concentrations (<0.1 μM)): 0.25 to 2.14 | Effect on astrocyte viability at low concentrations [4]: increased the viability | Concentrations with significant antiproliferative efficacy on astrocytes [4]: above 200 μM | BACE1 inhibition [5]: 78–91% | IC50 [6]: 14.2 µM | FA released in the brain [7]: did not release any FA

COc1cc(C=CC(=O)Oc2cccc(CC(N)C(=O)O)c2)ccc1O (stereo not shown) [FA-derivative 3]
IC50 [1]: 28.7 ± 1.15 µM | Concentrations with significant antiproliferative efficacy on astrocytes [4]: above 200 μM | BACE1 inhibition [5]: 81–91%

COc1cc(C=CC(=O)Nc2cccc(CC(N)C(=O)O)c2)ccc1O (stereo not shown) [FA-derivative 2]
IC50 [1]: 8.9 ± 1.25 µM | fraction unbound at 4 h, 10 μM [2, 8]: 0.0806 ± 0.0054 | Kp uu ([3]; throughout the studied concentrations (0.01-1.0 μM)): 0.83 to 1.74 | Effect on astrocyte viability at low concentrations [4]: increased the viability | Concentrations with significant antiproliferative efficacy on astrocytes [4]: above 200 μM | BACE1 inhibition [5]: 91–97% | IC50 [6]: 1.1 µM | FA released in the brain [7]: less than 5%

COc1cc(/C=C/C(=O)O)ccc1O [FA, trans-4-hydroxy-3-methoxycinnamic acid, reference compound]
IC50 in astrocytes (LAT1-probe substrate [14C]-L-leucine uptake) ([1]; n = 3-4): No inhibition | fraction unbound at 4 h, 10 μM ([2]; tissue homogenate): 1 | Unbound fraction fu,cell ([2]; tissue homogenate): Fully unbound | Effect on astrocyte viability at low concentrations [4]: increased the viability | Concentrations with significant antiproliferative efficacy on astrocytes [4]: above 200 μM | BACE1 inhibition [5]: ~97%
